Data published in patent US20200326355A1, “Methods and Systems to Measure Cannabidiol (CBD)” (Laboratory Corporation of America Holdings, priority 2019, published 2020).

Test: LC-MS/MS measurement of hydrolyzed cannabinoid metabolites in urine of donors known to be CBD users
Conditions: urine of seven known CBD users abstaining from marijuana

Row | Structure (SMILES) | carboxy-THC level in donated samples (13 of 16 samples detectible, all but one below the bound) | Parent THC detection in donated samples (16 samples)
1 | CCCCCc1cc(O)c2c(c1)OC(C)(C)[C@@H]1CCC(C(=O)O)=C[C@@H]21 [COO-THC, 11-carboxy Δ9-THC] | less than 15 ng/mL | 
2 | CCCCCc1cc(O)c2c(c1)OC(C)(C)[C@@H]1CCC(C)=C[C@@H]21 [THC, Tetrahydrocannabinol] |  | not detected
